{
  "source": "patent US20150374734A1",
  "about": "“ACTIVATION OF iNKT CELLS” (INSERM (INSTITUT NATIONAL DE LA SANTÉ ET DE LA RECHERCHE …, priority 2013, published 2015)",
  "key": {"splenic iNKT cells [1]": {"system": "splenic iNKT cells", "test": "iNKT cell recall response / anergy in vivo", "design": "species or system mouse", "method": "(§1) FIG. 1: DCs are crucial for iNKT cell primo-activation and for the prevention of iNKT cell anergy. (A) Transgenic CD11c.DTR mice were injected with PBS or DT 24 h before α-GalCer inoculation (100 ng/mouse). (B) Spleen DCs were sorted on the basis of CD11c expression and sensitized for 2 h with α-GalCer (25 ng/ml). Mice were then injected with α-GalCer-sensitized DCs or free α-GalCer (100 ng/mouse). A and B, Mice were euthanized 3 h after α-GalCer (A and B) or DC/α-GalCer (B) inoculation (primo-activation, grey) or received a second intravenous injection of α-GalCer (100 ng/mouse) 7 days later (recall response, black). In these later groups, animals were sacrificed 3 h after α-GalCer challenge. Splenic iNKT cells were then analysed for intracellular IFN-γ production. A representative experiment out of two (A) or three (B) is shown (mean±SD) (n=4). ** p<0.01, * p<0.05 (unpaired Student's t test).\nFIG. 5: Targeting α-GalCer into CD8α^+ DCs prevents iNKT cell anergy in vivo. Mice were intravenously injected with PBS, free α-GalCer (100 ng/mouse) or α-GalCer encapsulated into NP/DEC205 or NP/IgG (5 ng/mouse). A, After 3 h, mice were bled and splenic iNKT cells were screened for intracellular IFN-γ production. The average percentages±SD of iNKT cells positive for IFN-γ are represented (left panel). Production of IL-4 in the sera was quantified by ELISA (right panel). B, Mice received, 7 days later, a second injection of free α-GalCer ([…]) and spleen iNKT cells were screened for intracellular IFN-γ production 3 h later. […] A representative experiment out of two is shown (mean±SD) (n=3) C, The percentage±SD of iNKT cells expressing PD-1 is represented (7 days after α-GalCer stimulation). A representative experiment out of two is shown (n=4). ** p<0.01, * p<0.05 (unpaired Student's t test).\nMice were administrated intravenously with 200 μl of PBS containing 5 ng of free (or 100 ng as a control) or encapsulated α-GalCer. […] Splenic iNKT cells were analysed for intracellular IFN-γ expression and IFN-γ and IL-4 concentrations in the sera were determined by ELISA."}, "splenic iNKT cells [2]": {"system": "splenic iNKT cells", "test": "Primary iNKT cell activation in vivo (intracellular IFN-γ, serum IL-4)", "design": "species or system mouse", "method": "as §1\nFIG. 4: Encapsulation of α-GalCer in NP/DEC205 efficiently activates iNKT cells in vivo. Mice were intravenously injected with PBS alone or α-GalCer either in a free soluble form or encapsulated into NP/DEC205 or NP/IgG (5 ng α-GalCer/mouse). […] Production of IL-4 in the sera was quantified by ELISA (right panel) (n=3-8). […] The expression of CD86 (expressed as MFI) by DCs (CD11c^hi) is depicted. […]\nFIG. 5: Targeting α-GalCer into CD8α^+ DCs prevents iNKT cell anergy in vivo. […] Production of IL-4 in the sera was quantified by ELISA (right panel). […]\nCells were resuspended in the appropriate combination of Abs to allow identification of DC subsets (anti-CD11c, anti-CD8α, anti-CD11b), iNKT cells (anti-TCRβ, PBS-57-loaded CD1d tetramer), NK cells (anti-CD3ε, anti-NK1.1) or γδ T lymphocytes (anti-TCRγδ, anti-CD3ε). […] Expression of intracellular IFN-γ was analysed as previously described.^32 To measure Cy5-α-GalCer incorporation by splenic DC subsets, mice were intravenously injected with Cy5-conjugated α-GalCer (20 μg) and 2 h later, incorporation of Cy5 by spleen DC subsets was analysed by flow cytometry. […]"}, "[3]": {"system": "iNKT cell hybridoma DN32.D3", "test": "Ex vivo stimulatory capacity of in vivo α-GalCer-loaded DC subsets on DN32.D3", "type": "cell-based, mouse", "details": "DCs sorted 2 h after i.v. α-GalCer 2 μg; 24 h co-culture", "method": "(§2) FIG. 2: CD8α^+ and CD8α^− DCs differ in their ability to activate iNKT cells. A, B and C, Mice were intravenously injected with α-GalCer (2 μg). Two hours later, splenic CD8α^+ and CD8α^− DCs were sorted on the basis of CD11c, CD11b and CD8 expression (A) and co-cultured with sorted NKT cells (B) or with the α-GalCer-responsive IL-2-producing iNKT cell hybridoma DN32.D3 as a readout of Ag presentation (C). B and C, Cytokine production was quantified by ELISA. Results represent the mean±SD of four experiments. D, CD1d expression on CD8α^+ and CD8α^− DCs was assessed by flow cytometry. The staining with the isotype control was identical on both DC subsets. […] E, Recipient mice were intravenously injected with Cy5-conjugated, or unconjugated as a control, α-GalCer (20 μg) and Cy5 incorporation by CD8α^+ DCs (grey) and CD8α^− DCs (black) was analyzed by flow cytometry 2 h later. […]\n(§3) To assess the capacity of DCs to bind/uptake PLGA-based NPs, bone marrow-derived DCs (BM-DCs) (5×10^5 cells/well)^32 or spleen mononuclear cells (MNCs) (1×10^6 cells/well) were exposed with AlexaFluor647-labelled particles (10 μg/ml and 100 μg/ml, respectively) during 2 h at 37° C. After extensive washes, BM-DC (CD11c^+ DEC205^+/−) and spleen CD8α^+ and CD8α^− DCs were analysed by flow cytometry. […] Production of IFN-γ, IL-4 and IL-2 was measured in the culture supernatants by ELISA (R&D systems)."}, "sorted hepatic NKT cells": {"system": "sorted hepatic NKT cells", "test": "Ex vivo stimulatory capacity of in vivo α-GalCer-loaded DC subsets on NKT cells", "type": "cell-based, mouse", "details": "DCs sorted 2 h after i.v. α-GalCer 2 μg; 48 h co-culture", "method": "as §2, §3"}},
  "data": [
    {"compound": "CCCCCCCCCCCCCCCCCCCCCCCCCC(=O)N[C@@H](CO[C@H]1O[C@H](CO)[C@H](O)[C@H](O)[C@H]1O)[C@H](O)[C@H](O)CCCCCCCCCCCCCC", "note": "[α-GalCer, (2S,3S,4R)-1-O-(alpha-D-galactosyl)-N-hexacosanoyl-2-amino-1,3,4-octadecanetriol]", "values": [
      {"measurement": "PD-1 expression on iNKT cells", "setting": "splenic iNKT cells [1]; 7 days after α-GalCer stimulation, listed as free α-GalCer", "result": "induced enhanced PD-1 expression on iNKT cells"},
      {"measurement": "Recall response when DCs lacking at primary stimulation", "setting": "splenic iNKT cells [1]; CD11c.DTR mice treated with DT, α-GalCer 100 ng/mouse, rechallenge day 7", "result": "totally blunted"},
      {"measurement": "iNKT cell anergy (IFN-γ recall response)", "setting": "splenic iNKT cells [1]; second injection of free α-GalCer 100 ng 7 days later, 3 h", "result": "induced the expected iNKT cell anergy"},
      {"measurement": "Primary iNKT cell activation after DC depletion", "setting": "splenic iNKT cells [2]; CD11c.DTR mice, DT 24 h before, α-GalCer 100 ng/mouse", "result": "strongly lowered the extent of primary iNKT cell activation"},
      {"measurement": "Primary iNKT cell activation, low dose in NP/DEC205 vs high dose free", "setting": "splenic iNKT cells [2]; NP/DEC205 5 ng/mouse, free α-GalCer 100 ng/mouse, 3 h", "result": "comparable primary iNKT cell activation"},
      {"measurement": "Primary iNKT cell activation, free α-GalCer vs α-GalCer-sensitized DCs", "setting": "splenic iNKT cells [2]; free 100 ng/mouse, DCs sensitized 2 h with 25 ng/ml, 3 h", "result": "triggered a similar primary activation of iNKT cells"},
      {"measurement": "IL-2 production by DN32.D3 co-cultured with DC subsets", "setting": "[3]", "result": "CD8α^+ DCs triggered a higher IL-2 production by the iNKT cell hybridoma DN32.D3"},
      {"measurement": "Secretion of IFN-γ and IL-4 by NKT cells co-cultured with DC subsets", "setting": "sorted hepatic NKT cells", "result": "CD8α^+ DCs promoted a much stronger secretion of IFN-γ and IL-4"}
    ]}
  ]
}
